Laboratory results taken from PubChem BioAssay AID328 (DTP/NCI, 2004).
Several values for one entry are separate records, joined by “and”; a condition that tells them apart may be missing. Identical values can stand only once. Toxic doses and inconclusive results are not listed.

System: BDF1 mice, P388 leukemia ip, median survival T/C
Experiment: NCI In Vivo Anticancer Drug Screen. Data for tumor model P388 Leukemia (intraperitoneal) in B6D2F1 (BDF1) mice
Details: endpoint: median survival time, higher = longer survival
In short: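 Read-out is survival of treated animals expressed relative to the vehicle group, as a T/C ratio.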

[1] = dose: 25.0 mg/kg/injection, schedule: Q01DX009 (ip), vehicle: Klucel (hydroxypropylcellulose) (HPC)
[2] = dose: 50.0 mg/kg/injection, schedule: Q01DX009 (ip), vehicle: Klucel (hydroxypropylcellulose) (HPC)
[3] = dose: 50.0 mg/kg/injection, schedule: Q01DX009 (ip), vehicle: saline with Tween-80
[4] = dose: 100.0 mg/kg/injection, schedule: Q01DX009 (ip), vehicle: Klucel (hydroxypropylcellulose) (HPC)
[5] = dose: 100.0 mg/kg/injection, schedule: Q01DX009 (ip), vehicle: saline with Tween-80
[6] = dose: 100.0 mg/kg/injection, schedule: Q04DX003 (ip), vehicle: Klucel (hydroxypropylcellulose) (HPC)
[7] = dose: 25.0 mg/kg/injection, schedule: Q01DX009 (ip), vehicle: saline
[8] = dose: 50.0 mg/kg/injection, schedule: Q01DX009 (ip), vehicle: saline
[9] = dose: 100.0 mg/kg/injection, schedule: Q04DX003 (ip), vehicle: saline
[10] = dose: 200.0 mg/kg/injection, schedule: Q04DX003 (ip), vehicle: saline
[11] = dose: 200.0 mg/kg/injection, schedule: Q01DX009 (ip), vehicle: saline with Tween-80
[12] = dose: 200.0 mg/kg/injection, schedule: Q04DX003 (ip), vehicle: saline with Tween-80
[13] = dose: 400.0 mg/kg/injection, schedule: Q04DX003 (ip), vehicle: saline with Tween-80
[14] = dose: 12.5 mg/kg/injection, schedule: Q04DX003 (ip), vehicle: saline
[15] = dose: 25.0 mg/kg/injection, schedule: Q04DX003 (ip), vehicle: saline
[16] = dose: 50.0 mg/kg/injection, schedule: Q04DX003 (ip), vehicle: saline
[17] = dose: 100.0 mg/kg/injection, schedule: Q01DX009 (ip), vehicle: water
[18] = dose: 100.0 mg/kg/injection, schedule: Q04DX003 (ip), vehicle: water
[19] = dose: 200.0 mg/kg/injection, schedule: Q01DX009 (ip), vehicle: water
[20] = dose: 200.0 mg/kg/injection, schedule: Q04DX003 (ip), vehicle: water
[21] = dose: 400.0 mg/kg/injection, schedule: Q01DX009 (ip), vehicle: water
[22] = dose: 400.0 mg/kg/injection, schedule: Q04DX003 (ip), vehicle: water
[23] = dose: 100.0 mg/kg/injection, schedule: Q04DX003 (ip), vehicle: saline with Tween-80
[24] = dose: 150.0 mg/kg/injection, schedule: Q04DX003 (ip), vehicle: saline
[25] = dose: 400.0 mg/kg/injection, schedule: Q01DX009 (ip), vehicle: saline with Tween-80

Compound: COc1ccc2nc3cc(Cl)ccc3c(Nc3ccc(O)c(CN(CCCl)CCCl)c3)c2c1
- T/C (dose: 0.06 mg/kg/injection, schedule: Q01DX009 (ip), vehicle: saline with Tween-80): 105 % of control
- T/C (dose: 0.09 mg/kg/injection, schedule: Q01DX009 (ip), vehicle: saline with Tween-80): 99 % of control
- T/C (dose: 0.13 mg/kg/injection, schedule: Q01DX009 (ip), vehicle: saline with Tween-80): 89 % of control
- T/C (dose: 0.22 mg/kg/injection, schedule: Q04DX003 (ip), vehicle: saline): 100 % of control
- T/C (dose: 0.33 mg/kg/injection, schedule: Q04DX003 (ip), vehicle: saline): 118 % of control
- T/C (dose: 0.5 mg/kg/injection, schedule: Q01DX009 (ip), vehicle: saline): 177 % of control
- T/C (dose: 1.0 mg/kg/injection, schedule: Q01DX009 (ip), vehicle: saline): 163 % of control
- T/C (dose: 1.0 mg/kg/injection, schedule: Q04DX003 (ip), vehicle: saline): 159 % of control
- T/C (dose: 1.33 mg/kg/injection, schedule: Q04DX003 (ip), vehicle: saline): 154 % of control
- T/C (dose: 2.0 mg/kg/injection, schedule: Q01DX009 (ip), vehicle: saline): 104 % of control
- T/C (dose: 2.0 mg/kg/injection, schedule: Q04DX003 (ip), vehicle: saline): 158 % of control and 181 % of control
- T/C (dose: 3.0 mg/kg/injection, schedule: Q04DX003 (ip), vehicle: saline): 158 % of control and 179 % of control
- T/C (dose: 4.5 mg/kg/injection, schedule: Q04DX003 (ip), vehicle: saline): 195 % of control
- T/C (dose: 6.7 mg/kg/injection, schedule: Q04DX003 (ip), vehicle: saline): 179 % of control
- T/C (dose: 10.0 mg/kg/injection, schedule: Q04DX003 (ip), vehicle: saline): 183 % of control

Compound: CSc1nc(N)cc(NC(=O)CCl)n1
- T/C [1]: 113 % of control
- T/C [2]: 95 % of control
- T/C [3]: 100 % of control
- T/C (dose: 50.0 mg/kg/injection, schedule: Q04DX003 (ip), vehicle: Klucel (hydroxypropylcellulose) (HPC)): 113 % of control
- T/C [4]: 122 % of control
- T/C [5]: 100 % of control
- T/C [6]: 118 % of control

Compound: CCCN1CSC(=S)N(CCC)C1
- T/C [2]: 100 % of control
- T/C [4]: 170 % of control

Compound: Nc1ccc(CCCCc2ccc(Cl)cc2Cl)cc1
- T/C [7]: 95 % of control
- T/C [8]: 95 % of control
- T/C (dose: 100.0 mg/kg/injection, schedule: Q01DX009 (ip), vehicle: saline): 95 % of control
- T/C [9]: 104 % of control
- T/C (dose: 150.0 mg/kg/injection, schedule: Q01DX009 (ip), vehicle: saline): 109 % of control
- T/C [10]: 100 % of control

Compound: Cc1nn2c(=O)[nH]cnc2c1Cl
- T/C [5]: 93 % of control
- T/C [11]: 100 % of control
- T/C [12]: 95 % of control
- T/C [13]: 109 % of control

Compound: CC(C)(C)N1CCOCC1
- T/C [14]: 109 % of control
- T/C [7]: 95 % of control
- T/C [15]: 95 % of control
- T/C [8]: 86 % of control
- T/C [16]: 90 % of control
- T/C (dose: 75.0 mg/kg/injection, schedule: Q04DX003 (ip), vehicle: saline): 105 % of control
- T/C (dose: 115.0 mg/kg/injection, schedule: Q04DX003 (ip), vehicle: saline): 120 % of control

Compound: Cn1cnccc1=O
- T/C (dose: 50.0 mg/kg/injection, schedule: Q01DX009 (ip), vehicle: water): 122 % of control
- T/C [17]: 121 % of control
- T/C [18]: 118 % of control
- T/C [19]: 102 % of control
- T/C [20]: 106 % of control
- T/C [21]: 103 % of control
- T/C [22]: 115 % of control

Compound: C/C(=N\NC(=O)C(=O)N/N=C(\C)c1ccccc1)c1ccccc1
- T/C [3]: 96 % of control
- T/C [5]: 91 % of control

Compound: O=C(O)C1(C(=O)O)CCC1.[NH2-].[NH2-].[Pt+2]
- T/C (dose: 43.2 mg/kg/injection, schedule: Q01DX001 (ip), vehicle: saline): 120 % of control

Compound: CCCCCCCCCCOP(N)(=O)OCCCCCCCCCC
- T/C [15]: 115 % of control
- T/C [3]: 90 % of control
- T/C [16]: 110 % of control
- T/C [5]: 86 % of control
- T/C [23]: 95 % of control
- T/C [9]: 110 % of control
- T/C [24]: 110 % of control
- T/C [12]: 95 % of control
- T/C (dose: 225.0 mg/kg/injection, schedule: Q04DX003 (ip), vehicle: saline): 105 % of control

Compound: CC(=O)OCCC/C(=C\c1ccc2ccccc2c1)[N+](=O)[O-]
- T/C [4]: 118 % of control
- T/C (dose: 200.0 mg/kg/injection, schedule: Q01DX009 (ip), vehicle: Klucel (hydroxypropylcellulose) (HPC)): 122 % of control

Compound: CCCCN(CCCC)CCC(O)c1cc2ccc(C(F)(F)F)cc2c2cc(C(F)(F)F)ccc12 (configuration not stated)
- T/C [3]: 94 % of control
- T/C [5]: 90 % of control
- T/C [11]: 110 % of control

Compound: CCCCCCCCCCCCN=Cc1cc(Cc2ccc(O)c(C=NCCCCCCCCCCCC)c2)ccc1O
- T/C [3]: 106 % of control
- T/C [5]: 106 % of control
- T/C [11]: 123 % of control

Compound: CCOC(=O)C(=O)NNc1cccc(Cl)n1
- T/C (dose: 100.0 mg/kg/injection, schedule: Q01DX001 (ip), vehicle: saline with Tween-80): 94 % of control
- T/C (dose: 200.0 mg/kg/injection, schedule: Q01DX001 (ip), vehicle: saline with Tween-80): 86 % of control
- T/C (dose: 400.0 mg/kg/injection, schedule: Q01DX001 (ip), vehicle: saline with Tween-80): 112 % of control

Compound: Cc1c(-c2ccccc2)cc(O)cc1-c1ccccc1
- T/C [14]: 101 % of control
- T/C [15]: 97 % of control and 114 % of control
- T/C [16]: 102 % of control (2×) and 112 % of control
- T/C [9]: 88 % of control and 109 % of control
- T/C [24]: 93 % of control
- T/C [10]: 93 % of control and 101 % of control and 102 % of control

Compound: O=C1c2ccccc2C(=O)N1CC#CCN1C(=O)c2ccccc2C1=O
- T/C (dose: 75.0 mg/kg/injection, schedule: Q01DX009 (ip), vehicle: saline with Tween-80): 115 % of control
- T/C (dose: 150.0 mg/kg/injection, schedule: Q01DX009 (ip), vehicle: saline with Tween-80): 90 % of control
- T/C (dose: 300.0 mg/kg/injection, schedule: Q01DX009 (ip), vehicle: saline with Tween-80): 97 % of control

Compound: N#Cc1cnn(CCO)c1N
- T/C [17]: 90 % of control
- T/C [18]: 100 % of control
- T/C [19]: 113 % of control
- T/C [20]: 100 % of control
- T/C [21]: 109 % of control
- T/C [22]: 104 % of control

Compound: O=C(NC1CCCCC1)OCC#CC#CCOC(=O)NC1CCCCC1
- T/C [6]: 95 % of control
- T/C (dose: 200.0 mg/kg/injection, schedule: Q04DX003 (ip), vehicle: Klucel (hydroxypropylcellulose) (HPC)): 100 % of control

Compound: Cc1ccc(/C=C/C(=O)c2ccc(Cl)cc2)cc1
- T/C [5]: 90 % of control
- T/C [23]: 95 % of control
- T/C [11]: 90 % of control
- T/C [12]: 109 % of control
- T/C [25]: 100 % of control
- T/C [13]: 109 % of control

Compound: CSc1cccc(NC(=O)OCCOc2ccc(-c3ccccc3)cc2)c1
- T/C (dose: 12.5 mg/kg/injection, schedule: Q01DX009 (ip), vehicle: Klucel (hydroxypropylcellulose) (HPC)): 109 % of control
- T/C [1]: 105 % of control
- T/C [2]: 111 % of control

Compound: OC(c1cc(-c2ccc(C(F)(F)F)cc2)nc(C(F)(F)F)c1)C1CCCCN1 (configuration not stated)
- T/C [3]: 108 % of control

Compound: CCCCCCOC(=O)/C=C(/C)OCCCCCC
- T/C [3]: 100 % of control
- T/C (dose: 87.5 mg/kg/injection, schedule: Q01DX009 (ip), vehicle: saline with Tween-80): 113 % of control
- T/C [5]: 105 % of control
- T/C [9]: 108 % of control
- T/C (dose: 175.0 mg/kg/injection, schedule: Q01DX009 (ip), vehicle: saline with Tween-80): 100 % of control
- T/C [10]: 104 % of control
- T/C (dose: 265.0 mg/kg/injection, schedule: Q01DX009 (ip), vehicle: saline with Tween-80): 113 % of control
- T/C [25]: 118 % of control
- T/C (dose: 400.0 mg/kg/injection, schedule: Q04DX003 (ip), vehicle: saline): 108 % of control
